Test results published in ChEMBL document CHEMBL3217519, “A self-immolative dendritic glucuronide prodrug of doxorubicin” (Medchemcomm, 2012).
Calls of active or inactive are those of the source. No cut-off for these calls is given here.

Key:
NCI-H661 [1] = assay: Antiproliferative activity against human NCI-H661 cells assessed as inhibition of cell viability after 3 days by XTT assay in presence of beta-glucuronidase; type: functional, cell-based; conditions: NCI-H661, 72 h
[2] = Stability of the compound in 0.02M phosphate buffer assessed as drug decomposition at 0.06 umol at pH 7 after 10 days by HPLC analysis; type: physicochemical; conditions: pH 7, 240 h
Serum = assay: Stability of the compound in bovine serum assessed as drug degradation at 37 degC measured for 24 hrs; type: ADME, Bos taurus; conditions: cattle
Beta-glucuronidase = Beta-glucuronidase (Escherichia coli (strain K12), UniProt P05804); assay: Prodrug activation in phosphate buffer assessed as Escherichia coli beta-glucuronidase-catalysed release of doxorubicin at 0.06 umol at pH 7 after 6 hrs by HPLC analysis; conditions: isolated protein, pH 7, 6 h
NCI-H661 [3] = assay: Antiproliferative activity against human NCI-H661 cells assessed as inhibition of cell viability at 1000 nM after 3 days by XTT assay; type: functional, cell-based
NCI-H661 [4] = assay: Ratio of HMR1826 IC50 to compound IC50 for human NCI-H661 cells in presence of beta-glucuronidase; type: functional

Sequence of Beta-glucuronidase (P05804 whole entry): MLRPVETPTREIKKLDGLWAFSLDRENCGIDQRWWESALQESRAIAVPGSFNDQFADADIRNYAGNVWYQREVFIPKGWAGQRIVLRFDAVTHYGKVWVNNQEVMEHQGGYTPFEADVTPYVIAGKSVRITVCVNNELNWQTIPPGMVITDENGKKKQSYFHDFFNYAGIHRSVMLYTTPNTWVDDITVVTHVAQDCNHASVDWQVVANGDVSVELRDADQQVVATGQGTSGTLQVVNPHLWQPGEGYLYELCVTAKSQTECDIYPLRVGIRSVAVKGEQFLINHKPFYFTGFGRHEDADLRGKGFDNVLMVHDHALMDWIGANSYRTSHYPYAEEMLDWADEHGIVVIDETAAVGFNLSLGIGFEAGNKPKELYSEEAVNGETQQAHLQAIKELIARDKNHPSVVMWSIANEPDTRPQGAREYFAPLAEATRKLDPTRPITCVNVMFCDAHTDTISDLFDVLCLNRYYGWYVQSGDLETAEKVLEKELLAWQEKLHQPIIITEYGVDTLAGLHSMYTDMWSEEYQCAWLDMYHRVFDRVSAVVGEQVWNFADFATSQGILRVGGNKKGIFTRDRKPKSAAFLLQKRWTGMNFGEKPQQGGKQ

| Structure (SMILES) | IC50 (NCI-H661 [1]) [nM] | Stability [2] | Stability (Serum) | Drug metabolism (Beta-glucuronidase) | inhibition (NCI-H661 [3]) | Ratio IC50 (NCI-H661 [4]) |
| --- | --- | --- | --- | --- | --- | --- |
| COc1cccc2c1C(=O)c1c(O)c3c(c(O)c1C2=O)C[C@@](O)(C(=O)CO)C[C@@H]3O[C@H]1C[C@H](N)[C@H](O)[C@H](C)O1 [DOXORUBICIN] | 250 | – | – | – | – | – |
| COc1cccc2c1C(=O)c1c(O)c3c(c(O)c1C2=O)C[C@@](O)(C(=O)CO)C[C@@H]3O[C@H]1C[C@H](NC(=O)OCc2ccc(NC(=O)OCc3ccc(O[C@@H]4O[C@H](C(=O)O)[C@@H](O)[C@H](O)[C@H]4O)c([N+](=O)[O-])c3)c(COC(=O)N[C@H]3C[C@H](O[C@H]4C[C@](O)(C(=O)CO)Cc5c(O)c6c(c(O)c54)C(=O)c4c(OC)cccc4C6=O)O[C@@H](C)[C@H]3O)c2)[C@H](O)[C@H](C)O1 | 110 | Stable | Stable | Active | inactive | 2 |
| COc1cccc2c1C(=O)c1c(O)c3c(c(O)c1C2=O)C[C@@](O)(C(=O)CO)C[C@@H]3O[C@H]1C[C@H](NC(=O)OCc2ccc(O[C@@H]3O[C@H](C(=O)O)[C@@H](O)[C@H](O)[C@H]3O)c([N+](=O)[O-])c2)[C@H](O)[C@H](C)O1 | 280 | – | – | – | – | – |
